Laboratory results as given in patent publication EP0810245A1, “Catalyst for low temperature cure of blocked isocyanates” (ELF ATOCHEM NORTH AMERICA, INC., priority 1996, dated 1997).

Columns and labels:
[1] = Gel time by Brookfield viscosity (time to 2500 cps), masterbatch of Examples 9-12 and K, Zn salts as co-catalysts; conditions: 0.16 %Sn, co-catalyst 0.07 %Zn where used
Procedure: (§1) Solids content was maintained between 50-60%.
(§2) Comparison of catalyst activity was determined by monitoring viscosity as a function of cure time. A Brookfield viscometer fitted with a heated cell was connected to a strip chart recorder. A 10 gram aliquot of the formulation with the desired catalyst was placed in the chamber and rapidly heated to the test temperature. A #27 speed spindle was immersed into the solution and the initial viscosity measured. The rate of increase in viscosity was monitored until a viscosity of 2500 cps was achieved. In almost all the examples the formulation gelled at this viscosity. The time required to reach this viscosity was termed "gel time" at the test temperature. This technique provides information on the time required to reach a target viscosity and on the rate of increase in viscosity for a given system and compares the relative reactivity of different catalysts in a specific formulation at the same temperature. Variability in gel time is +/- 0.5-1.0 mins and is limited by the accuracy of weighing of the catalyst. […] Gel time measurements were then correlated with film properties.
In comparative example K and operative examples 9 to 12 a masterbatch of the following mixture was prepared. The components were stirred to ensure complete solubility, usually from 2 to 4 hours. • Desmophen A565 215g • Desmodur BL 3175 A 140g • Methyl isobutyl ketone 146.4g
(§3) For each evaluation, a 10g aliquot of this master batch was removed and the appropriate catalyst added.

[2] = Gel time by Brookfield viscosity (time to 2500 cps), masterbatch of Examples 1-8 and A-J; design: key to Gel Time @250F (120C): minutes to reach target viscosity (gel time); GEL TIME @ 130°C: unit: min; conditions: for GEL TIME @ 130°C: 0.16%Sn, time to reach 2500 cps (gel times in mins)
Procedure: as §1, §2
The components were stirred to ensure complete solubility, usually from 2 to 4 hours. • Desmophen A565 (215g, 42.9 wt%) • Desmodur BL 3175 A (140g, 27.9 wt%) • methyl amyl ketone (58.5g, 11.7 wt%) • methy isobutyl ketone (58.5g, 11.7 wt%) • propylene glycol methyl ether acetate (29.0g, 5.8 wt%)
as §3

Compound	Gel Time @ 120°C [1]	Gel Time @ 125°C [1]	GEL TIME @ 130°C [2]	Gel Time @250F (120C) ([2]; 0.20 %Sn)	Gel Time @250F (120C) ([2]; 0.16 %Sn)	Gel Time @266F (130C) ([2]; 0.16 %Sn)	Gel Time @266F (130C) ([2]; 0.20 %Sn)
CCCCCCCCCCCC(=O)[O][Sn]([CH2]CCC)([CH2]CCC)[O]C(=O)CCCCCCCCCCC [A, Dibutyl Sn Dilaurate, reference compound]	45 min	29 min	22.2	48.7			
CCC[CH2][Sn]([CH2]CCC)([O]C(C)=O)[O]C(C)=O [B, Dibutyl Sn Diacetate, reference compound]			21.2		45	21.3 min	
CCC[CH2][Sn](=[O])[CH2]CCC [C, Dibutyl Sn Oxide, reference compound]			23.2			23.2 min	
CCC[CH2][Sn]([CH2]CCC)([O]C(C)=O)[O][Sn]([CH2]CCC)([CH2]CCC)[O]C(C)=O [D, Dibutyl Diacetoxy Stannox n=0, reference compound]			18.6		38	18.6 min	
Dibutyl Di Octylmaleate Stannox n=6 [Example 3]			20.4				
Dibutyl Diacetoxy Stannox n=3 [Example 1]			17.2		36.1	17.2 min	
Dibutyl Diacetoxy Stannox n=6 [Example 2]			16.4		32.5	16.5 min	
Dibutyl Diformyloxy Stannox (n=3) [Example 4]				27.5			15.9 min
Dibutyl Diformyloxy Stannox (n=6) [Example 5]				25.6			
Dibutyl Diformyloxy Stannox (n=14) [Example 6]	29 min	19 min		24.1			14.4 min
